Experimental data published in ChEMBL document CHEMBL5463729, “Data for DCP probe BAY 1753011” (2023).

Legend:
Conditions in all cases: Compound concentration 10.0 uM
[1] = biological target: Casein kinase I isoform epsilon (Homo sapiens) (UniProt P49674); test: Inhibition of CK1epsilon(h) at 10.0 µM in the Eurofins Kinase panel
[2] = biological target: Mast/stem cell growth factor receptor Kit (Homo sapiens) (UniProt P10721); test: Inhibition of cKit(h) at 10.0 µM in the Eurofins Kinase panel
[3] = biological target: Death-associated protein kinase 1 (Homo sapiens) (UniProt P53355); test: Inhibition of DAPK1(h) at 10.0 µM in the Eurofins Kinase panel
[4] = biological target: Dual specificity tyrosine-phosphorylation-regulated kinase 1A (Homo sapiens) (UniProt Q13627); test: Inhibition of DYRK1A(h) at 10.0 µM in the Eurofins Kinase panel
[5] = biological target: Receptor tyrosine-protein kinase erbB-2 (Homo sapiens) (UniProt P04626); test: Inhibition of ErbB2(h) at 10.0 µM in the Eurofins Kinase panel
[6] = biological target: Receptor tyrosine-protein kinase erbB-4 (Homo sapiens) (UniProt Q15303); test: Inhibition of ErbB4(h) at 10.0 µM in the Eurofins Kinase panel
[7] = biological target: Fibroblast growth factor receptor 2 (Homo sapiens) (UniProt P21802); test: Inhibition of FGFR2(h) at 10.0 µM in the Eurofins Kinase panel
[8] = biological target: eIF-2-alpha kinase GCN2 (Homo sapiens) (UniProt Q9P2K8); test: Inhibition of GCN2(h) at 10.0 µM in the Eurofins Kinase panel
[9] = biological target: G protein-coupled receptor kinase 5 (Homo sapiens) (UniProt P34947); test: Inhibition of GRK5(h) at 10.0 µM in the Eurofins Kinase panel
[10] = biological target: Vascular endothelial growth factor receptor 2 (Homo sapiens) (UniProt P35968); test: Inhibition of KDR(h) at 10.0 µM in the Eurofins Kinase panel
[11] = biological target: Serine/threonine-protein kinase STK11 (Homo sapiens) (UniProt Q15831); test: Inhibition of LKB1(h) at 10.0 µM in the Eurofins Kinase panel
[12] = biological target: Serine/threonine-protein kinase MAK (Homo sapiens) (UniProt P20794); test: Inhibition of MAK(h) at 10.0 µM in the Eurofins Kinase panel
[13] = biological target: Myosin light chain kinase (Homo sapiens) (UniProt Q32MK0); test: Inhibition of MLCK(h) at 10.0 µM in the Eurofins Kinase panel
[14] = biological target: Serine/threonine-protein kinase 4 (Homo sapiens) (UniProt Q13043); test: Inhibition of MST1(h) at 10.0 µM in the Eurofins Kinase panel
[15] = biological target: Serine/threonine-protein kinase Nek2 (Homo sapiens) (UniProt P51955); test: Inhibition of NEK2(h) at 10.0 µM in the Eurofins Kinase panel
[16] = biological target: PAS domain-containing serine/threonine-protein kinase (Homo sapiens) (UniProt Q96RG2); test: Inhibition of PASK(h) at 10.0 µM in the Eurofins Kinase panel
[17] = biological target: Eukaryotic translation initiation factor 2-alpha kinase 3 (Homo sapiens) (UniProt Q9NZJ5); test: Inhibition of PEK(h) at 10.0 µM in the Eurofins Kinase panel
[18] = biological target: Protein kinase C zeta type (Homo sapiens) (UniProt Q05513); test: Inhibition of PKCzeta(h) at 10.0 µM in the Eurofins Kinase panel
[19] = biological target: Proto-oncogene tyrosine-protein kinase receptor Ret (Homo sapiens) (UniProt P07949); test: Inhibition of Ret(h) at 10.0 µM in the Eurofins Kinase panel
[20] = biological target: Tau-tubulin kinase 1 (Homo sapiens) (UniProt Q5TCY1); test: Inhibition of TTBK1(h) at 10.0 µM in the Eurofins Kinase panel
[21] = biological target: DNA-dependent protein kinase catalytic subunit (Homo sapiens) (UniProt P78527); test: Inhibition of DNA-PK(h) at 10.0 µM in the Eurofins Kinase panel
[22] = biological target: Phosphatidylinositol 4,5-bisphosphate 3-kinase catalytic subunit gamma isoform (Homo sapiens) (UniProt P48736); test: Inhibition of PI3 Kinase (p120g)(h) at 10.0 µM in the Eurofins Kinase panel
[23] = biological target: T1, 5-hydroxytryptamine receptor 3A (Homo sapiens) (UniProt P46098)
T1 sequence (whole entry): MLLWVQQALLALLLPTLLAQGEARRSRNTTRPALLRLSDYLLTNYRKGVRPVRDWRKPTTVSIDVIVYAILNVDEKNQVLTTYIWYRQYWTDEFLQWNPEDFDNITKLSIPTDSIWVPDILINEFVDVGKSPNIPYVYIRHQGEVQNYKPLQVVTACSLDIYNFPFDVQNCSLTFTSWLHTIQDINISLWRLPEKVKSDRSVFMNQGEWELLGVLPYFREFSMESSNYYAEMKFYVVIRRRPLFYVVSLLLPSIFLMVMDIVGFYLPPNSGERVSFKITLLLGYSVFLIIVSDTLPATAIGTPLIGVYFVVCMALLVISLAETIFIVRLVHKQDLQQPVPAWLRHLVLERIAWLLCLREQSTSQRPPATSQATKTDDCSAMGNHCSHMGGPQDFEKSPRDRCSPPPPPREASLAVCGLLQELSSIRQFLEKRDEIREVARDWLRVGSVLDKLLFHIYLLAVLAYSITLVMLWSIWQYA

[24] = biological target: Glutamate NMDA receptor (Rattus norvegicus) (UniProt P35439+Q00959+Q00960+Q00961+Q62645+Q8VHN2+Q9R1M7)
[25] = biological target: T2, Muscarinic acetylcholine receptor M1 (Homo sapiens) (UniProt P11229)
T2 sequence (whole entry): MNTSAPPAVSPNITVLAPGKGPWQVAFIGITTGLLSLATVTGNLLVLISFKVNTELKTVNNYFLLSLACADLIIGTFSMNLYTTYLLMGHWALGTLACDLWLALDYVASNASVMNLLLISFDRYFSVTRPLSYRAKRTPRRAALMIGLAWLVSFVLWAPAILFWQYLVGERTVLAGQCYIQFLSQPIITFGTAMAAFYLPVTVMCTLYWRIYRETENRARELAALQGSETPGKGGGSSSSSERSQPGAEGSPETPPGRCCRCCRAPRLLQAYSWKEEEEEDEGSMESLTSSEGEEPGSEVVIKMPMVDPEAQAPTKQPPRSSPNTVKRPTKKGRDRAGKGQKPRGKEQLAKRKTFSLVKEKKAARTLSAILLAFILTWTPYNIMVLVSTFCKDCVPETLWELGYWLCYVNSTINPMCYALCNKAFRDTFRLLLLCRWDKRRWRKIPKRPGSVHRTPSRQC

[26] = biological target: Delta-type opioid receptor (Homo sapiens) (UniProt P41143)
[27] = biological target: Activin receptor type-2A (Homo sapiens) (UniProt P27037); test: Inhibition of ACTR2(h) at 10.0 µM in the Eurofins Kinase panel

Structure (SMILES)	inhibition [1]	inhibition [2]	inhibition [3]	inhibition [4]	inhibition [5]	inhibition [6]	inhibition [7]	inhibition [8]	inhibition [9]	inhibition [10]	inhibition [11]	inhibition [12]	inhibition [13]	inhibition [14]	inhibition [15]	inhibition [16]	inhibition [17]	inhibition [18]	inhibition [19]	inhibition [20]	further results
O=c1n(Cc2cncn2-c2cccc(Cl)c2)nc(-c2ccc(Cl)cc2)n1C[C@H](O)C(F)(F)F	4.45%	7.72%	-5.66%	3.54%	-4.27%	-8.65%	-6.43%	12.4%	-0.58%	-2.77%	1.85%	3.99%	1.74%	2.53%	-1.06%	-0.36%	-1.49%	8.34%	-9.37%	-6.92%	inhibition [21]: -5.25%; inhibition [22]: 9.44%; inhibition [23]: -2.44%; inhibition [24]: -4%; inhibition [25]: 1%; inhibition [26]: 2%; inhibition [27]: 6.32%
C[C@H](O)c1nc(Cn2nc(-c3ccc(Cl)cc3)n(C[C@H](O)C(F)(F)F)c2=O)nn1-c1cccc(Cl)c1 [PECAVAPTAN]	1.26%	4.28%	-1.83%	8.95%	-6.43%	-4.41%	-7.72%	13.1%	2.6%	1.28%	-1.51%	5.13%	1.69%	9.3%	3.19%	-4.97%	1.82%	18.7%	-9.36%	-7.82%	inhibition [21]: -4.2%; inhibition [22]: 14.1%; inhibition [23]: -4.35%; inhibition [24]: -10%; inhibition [25]: -5%; inhibition [26]: 4%; inhibition [27]: 5.43%
